Measured values published in PubChem BioAssay (NCI).
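Each compound was tested at five concentrations against cells in 96-well plates for 48 hours. TGI marks complete inhibition of growth.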

Key:
Assay in all cases: inhibition of tumour cell growth, NCI panel, 48 h
HOP-62 NSCLC = system: HOP-62 NSCLC
M14 melanoma = system: M14 melanoma
UACC-62 melanoma = system: UACC-62 melanoma
NCI-H23 lung = system: NCI-H23 lung
SR leukemia = system: SR leukemia
RPMI-8226 leukemia = system: RPMI-8226 leukemia
OVCAR-3 ovarian = system: OVCAR-3 ovarian
SNB-19 CNS = system: SNB-19 CNS
HT29 colon = system: HT29 colon
IGROV1 ovarian = system: IGROV1 ovarian
LXFL 529 NSCLC = system: LXFL 529 NSCLC
M19-MEL melanoma = system: M19-MEL melanoma
EKVX NSCLC = system: EKVX NSCLC
CCRF-CEM leukemia = system: CCRF-CEM leukemia
A549 NSCLC = system: A549 NSCLC
ACHN renal = system: ACHN renal
OVCAR-4 ovarian = system: OVCAR-4 ovarian
TK-10 renal = system: TK-10 renal
SK-MEL-28 melanoma = system: SK-MEL-28 melanoma
SN12C renal = system: SN12C renal
HL-60(TB) leukemia = system: HL-60(TB) leukemia
UO-31 renal = system: UO-31 renal
MOLT-4 leukemia = system: MOLT-4 leukemia
786-0 renal = system: 786-0 renal
RXF-631 renal = system: RXF-631 renal
HCC-2998 colon = system: HCC-2998 colon
HCT-116 colon = system: HCT-116 colon
SK-MEL-2 melanoma = system: SK-MEL-2 melanoma
SF-268 CNS = system: SF-268 CNS
MALME-3M melanoma = system: MALME-3M melanoma
HCT-15 colon = system: HCT-15 colon
U251 CNS = system: U251 CNS
COLO 205 colon = system: COLO 205 colon
RXF 393 renal = system: RXF 393 renal
SF-539 CNS = system: SF-539 CNS
DMS 273 small cell lung = system: DMS 273 small cell lung
A498 renal = system: A498 renal
KM20L2 colon = system: KM20L2 colon
SF-295 CNS = system: SF-295 CNS
DLD-1 colon = system: DLD-1 colon
DMS 114 small cell lung = system: DMS 114 small cell lung
NCI-H460 lung = system: NCI-H460 lung
SK-MEL-5 melanoma = system: SK-MEL-5 melanoma
NCI-H226 lung = system: NCI-H226 lung
SNB-75 CNS = system: SNB-75 CNS
SW-620 colon = system: SW-620 colon
LOX IMVI melanoma = system: LOX IMVI melanoma
XF 498 CNS = system: XF 498 CNS
UACC-257 melanoma = system: UACC-257 melanoma
K-562 leukemia = system: K-562 leukemia
HOP-18 NSCLC = system: HOP-18 NSCLC
CAKI-1 renal = system: CAKI-1 renal
KM12 colon = system: KM12 colon
NCI-H522 lung = system: NCI-H522 lung
SNB-78 CNS = system: SNB-78 CNS
HOP-92 NSCLC = system: HOP-92 NSCLC
SK-OV-3 ovarian = system: SK-OV-3 ovarian
OVCAR-8 ovarian = system: OVCAR-8 ovarian
OVCAR-5 ovarian = system: OVCAR-5 ovarian

Work on O=c1cc(-c2c[nH]c3ccccc23)[nH]c2cc3c(cc12)OCO3 yielded a TGI (HOP-62 NSCLC) of over 100 µM, a TGI (M14 melanoma) of over 100 µM and a TGI (UACC-62 melanoma) of over 100 µM. For the same compound, the TGI (NCI-H23 lung) was over 100 µM, the TGI (SR leukemia) was over 100 µM and the TGI (RPMI-8226 leukemia) was over 100 µM. For the same compound, the TGI (OVCAR-3 ovarian) was over 100 µM, the TGI (SNB-19 CNS) was over 100 µM and the TGI (HT29 colon) was over 100 µM. For the same compound, the TGI (IGROV1 ovarian) was over 100 µM, the TGI (LXFL 529 NSCLC) was over 100 µM and the TGI (M19-MEL melanoma) was over 100 µM. For the same compound, the TGI (EKVX NSCLC) was over 100 µM, the TGI (CCRF-CEM leukemia) was over 100 µM and the TGI (A549 NSCLC) was over 100 µM. It also gave a TGI (ACHN renal) of over 100 µM, a TGI (OVCAR-4 ovarian) of over 100 µM and a TGI (TK-10 renal) of over 100 µM. The TGI (SK-MEL-28 melanoma) was over 100 µM, the TGI (SN12C renal) was over 100 µM and the TGI (HL-60(TB) leukemia) was over 100 µM. It also gave a TGI (UO-31 renal) of over 100 µM, a TGI (MOLT-4 leukemia) of over 100 µM and a TGI (786-0 renal) of over 100 µM. The TGI (RXF-631 renal) was over 100 µM, the TGI (HCC-2998 colon) was over 100 µM and the TGI (HCT-116 colon) was over 100 µM. For the same compound, the TGI (SK-MEL-2 melanoma) was over 100 µM, the TGI (SF-268 CNS) was over 100 µM and the TGI (MALME-3M melanoma) was over 100 µM. It also gave a TGI (HCT-15 colon) of over 100 µM, a TGI (U251 CNS) of over 100 µM and a TGI (COLO 205 colon) of over 100 µM. The TGI (RXF 393 renal) was over 100 µM, the TGI (SF-539 CNS) was over 100 µM and the TGI (DMS 273 small cell lung) was over 100 µM. It also gave a TGI (A498 renal) of over 100 µM, a TGI (KM20L2 colon) of over 100 µM and a TGI (SF-295 CNS) of over 100 µM. For the same compound, the TGI (DLD-1 colon) was over 100 µM, the TGI (DMS 114 small cell lung) was over 100 µM and the TGI (NCI-H460 lung) was over 100 µM. The TGI (SK-MEL-5 melanoma) was over 100 µM, the TGI (NCI-H226 lung) was over 100 µM and the TGI (SNB-75 CNS) was 72.6 µM. The TGI (SW-620 colon) was over 100 µM, the TGI (LOX IMVI melanoma) was over 100 µM and the TGI (XF 498 CNS) was over 100 µM. For the same compound, the TGI (UACC-257 melanoma) was over 100 µM and the TGI (K-562 leukemia) was over 100 µM.

Cc1c(CCO)c(=O)n2c([nH]c3ccccc32)c1C#N showed a TGI (HOP-62 NSCLC) of over 100 µM, a TGI (M14 melanoma) of over 100 µM and a TGI (UACC-62 melanoma) of over 100 µM. It also gave a TGI (NCI-H23 lung) of over 100 µM, a TGI (RPMI-8226 leukemia) of over 100 µM and a TGI (OVCAR-3 ovarian) of over 100 µM. For the same compound, the TGI (HOP-18 NSCLC) was over 100 µM, the TGI (SNB-19 CNS) was 91.8 µM and the TGI (HT29 colon) was over 100 µM. It also gave a TGI (IGROV1 ovarian) of over 100 µM, a TGI (CAKI-1 renal) of over 100 µM and a TGI (LXFL 529 NSCLC) of over 100 µM. For the same compound, the TGI (M19-MEL melanoma) was over 100 µM, the TGI (EKVX NSCLC) was over 100 µM and the TGI (CCRF-CEM leukemia) was over 100 µM. For the same compound, the TGI (A549 NSCLC) was over 100 µM, the TGI (ACHN renal) was over 100 µM and the TGI (OVCAR-4 ovarian) was over 100 µM. The TGI (KM12 colon) was over 100 µM, the TGI (TK-10 renal) was over 100 µM and the TGI (SK-MEL-28 melanoma) was over 100 µM. The TGI (NCI-H522 lung) was over 100 µM, the TGI (UO-31 renal) was over 100 µM and the TGI (786-0 renal) was over 100 µM. The TGI (SNB-78 CNS) was over 100 µM, the TGI (HCC-2998 colon) was over 100 µM and the TGI (HCT-116 colon) was over 100 µM. For the same compound, the TGI (SK-MEL-2 melanoma) was over 100 µM, the TGI (HOP-92 NSCLC) was over 100 µM and the TGI (SK-OV-3 ovarian) was over 100 µM. For the same compound, the TGI (SF-268 CNS) was over 100 µM, the TGI (MALME-3M melanoma) was over 100 µM and the TGI (HCT-15 colon) was over 100 µM. For the same compound, the TGI (U251 CNS) was over 100 µM, the TGI (COLO 205 colon) was over 100 µM and the TGI (RXF 393 renal) was over 100 µM. For the same compound, the TGI (SF-539 CNS) was over 100 µM, the TGI (DMS 273 small cell lung) was over 100 µM and the TGI (A498 renal) was over 100 µM. The TGI (OVCAR-8 ovarian) was over 100 µM, the TGI (KM20L2 colon) was over 100 µM and the TGI (SF-295 CNS) was over 100 µM. It also gave a TGI (OVCAR-5 ovarian) of over 100 µM, a TGI (DLD-1 colon) of over 100 µM and a TGI (DMS 114 small cell lung) of over 100 µM. For the same compound, the TGI (NCI-H460 lung) was 98.8 µM, the TGI (SK-MEL-5 melanoma) was over 100 µM and the TGI (NCI-H226 lung) was over 100 µM. The TGI (SNB-75 CNS) was over 100 µM, the TGI (SW-620 colon) was over 100 µM and the TGI (LOX IMVI melanoma) was over 100 µM. The TGI (XF 498 CNS) was over 100 µM, the TGI (UACC-257 melanoma) was over 100 µM and the TGI (K-562 leukemia) was over 100 µM.
